One experiment has as its target T1, equine BChE (eqBChE) (Equus caballus, UniProt P81908).
T1 construct: purchased Sigma-Aldrich (Milan, Italy)
As to the kind of experiment: Percent inhibition of eqBChE, Ellman's spectrophotometric method. In kind it is biochemical. To be noted: for % inhibition vs eqBChE ± SD (900 uM): 900 nM; for inhibition at 0.9 µM: [I] 900 nM. How it is done:
On the synthesized compounds, enzymatic inhibition studies were carried out toward Electrophorus electricus AChE (EeAChE) and equine BChE (eqBChE) according to Ellman’s spectrophotometric method.[25]
All other chemical and biological reagents and solvents used were of the highest analytical, commercially available grade. The water, utilized for the preparation of the phosphate buffer and of the compound solutions, was distilled and filtered on nylon membrane filters with a 0.2 μm pore size with the Millipore Filtration apparatus before each use. Micropipettes Labmate (BRAND Dig. 10–100 μL; Dig. 100–1000 μL; Dig. 0.1–2 μL) and Transferpette (HIGH TECH LAB LM200: 20–200 μL; LM5000: 1000–5000 μL) were used to collect the samples. The assays were carried out by a double beam UV–vis Lambda 40 Perkin Elmer spectrophotometer using optical polystyrene cuvettes (10 × 10 × 45 mm, 340–800 nm optical transparency); each measure was repeated at least in triplicate. […] The spectrophotometric method of Ellman[25] with minor modifications was used to evaluate the inhibition of ChEs. […] EeAChE and eqBChE were periodically tested to evaluate the effective enzymatic activity.
For all the synthesized compounds, the percentages of inhibition toward AChE of Electrophorus electricus (EeAChE) and equine BChE (eqBChE) were evaluated.
Three milliliters of a solution in 0.1 M phosphate buffer (pH = 7.4) containing DTNB (0.25 mM) and EeAChE (0.083 UmL^–1) or eqBChE (0.083 UmL^–1) was placed in a polystyrene cuvette of 1.0 cm path length; 1 μL of a solution in DMSO of the tested compound was added to obtain a cuvette concentration range of 9–0.09 μM. With this solution, the blank was made. […] Each experiment was repeated at least in triplicate.
Background: Ellman's reagent forms a yellow product with free thiols.

The target in a further experiment is T2, tau protein (Homo sapiens, UniProt P10636).
T2 construct: expressed in transfected cells; host or cells: E. coli BL21 (DE3) with pTARA and pRKT42
T2 sequence (P10636 1-441 isoform P10636-8): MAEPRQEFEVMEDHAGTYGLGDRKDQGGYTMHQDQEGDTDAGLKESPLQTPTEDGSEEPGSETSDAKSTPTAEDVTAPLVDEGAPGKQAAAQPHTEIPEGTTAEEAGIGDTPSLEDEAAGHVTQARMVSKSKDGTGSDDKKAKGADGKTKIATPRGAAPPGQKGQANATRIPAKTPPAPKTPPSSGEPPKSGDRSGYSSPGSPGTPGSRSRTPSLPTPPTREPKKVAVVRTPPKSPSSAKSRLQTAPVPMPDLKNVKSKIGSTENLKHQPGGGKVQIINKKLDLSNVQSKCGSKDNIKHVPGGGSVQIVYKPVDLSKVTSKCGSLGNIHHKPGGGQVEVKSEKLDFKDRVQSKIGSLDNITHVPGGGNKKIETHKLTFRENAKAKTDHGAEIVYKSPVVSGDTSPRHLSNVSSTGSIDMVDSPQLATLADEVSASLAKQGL
The experiment is described as follows: Inhibition of tau aggregation in intact E. coli cells, thioflavin-S. In kind it is cell-based, Escherichia coli. To be noted: [I] = 100 μM. How it is done:
The anti-aggregating effect of the tested compounds was monitored by a cell-based assay in intact Escherichia coli cells that overexpress either the Aβ42 peptide or tau protein, which upon overexpression form insoluble inclusion bodies that were stained with thioflavin-S, an amyloid specific dye.[36] The percentages of inhibition toward Aβ42 and tau aggregation were determined at an inhibitor concentration of 100 μM, and the obtained results are reported in Table 7.
E. coli BL21 (DE3) competent cells were transformed with pTARA containing the RNA-polymerase gene of T7 phage (T7RP) under the control of the promoter PBAD. E. coli BL21 (DE3) with pTARA competent cells were transformed with the pRKT42 vector encoding four repeats of the tau protein in two inserts. For overnight culture preparation, 10 mL of the M9 medium containing 0.5% of glucose, 50 μg·mL^–1 of ampicillin, and 12.5 μg·mL^–1 of chloramphenicol was inoculated with a colony of BL21 (DE3) bearing the plasmids to be expressed at 37 °C. For expression of the tau protein, the required volume of overnight culture to obtain 1:500 dilution was added to the fresh M9 minimal medium containing 0.5% of glucose, 50 μg·mL^–1 of ampicillin, 12.5 μg·mL^–1 of chloramphenicol, and 250 μM Th-S. The bacterial culture was grown at 37 °C and 250 rpm. When the cell density reached OD600 = 0.6, an amount of 980 μL of culture was transferred into Eppendorf tubes of 1.5 mL with 10 μL of each compound to be tested in DMSO and 10 μL of arabinose at 25%. The final concentration of the drug was fixed at 100 μM. The samples were grown overnight at 37 °C and 1400 rpm using a ThermoMixer (Eppendorf, Hamburg, Germany). As negative control (maximal presence of tau), the same amount of DMSO without the drug was added in the sample. In parallel, non-induced samples (in the absence of arabinose) were also prepared and used as positive controls (absence of tau). In addition, these samples were used to assess the potential intrinsic toxicity of the compounds and to confirm the correct bacterial growth.
Th-S (T1892) and other chemical reagents were purchased from Sigma (St. Louis, MO). The Th-S stock solution ([…]) was prepared in double-distilled water purified through a Milli-Q system (Millipore, USA). Th-S fluorescence and absorbance were tracked using a DTX 800 plate reader Multimode Detector equipped with a Multimode Analysis Software (Beckman-Coulter, USA). Filters of 430/35 and 485/20 nm were used for the excitation and emission wavelengths, respectively. Filters of 535/25 nm were also used for the absorbance determination. To normalize the Th-S fluorescence as a function of the bacterial concentration, OD600 was obtained using a Shimadzu UV-2401 PC UV–vis spectrophotometer (Shimadzu, Japan). Note that the fluorescence normalization was carried out considering as 100% the Th-S fluorescence of the bacterial cells expressing the peptide or protein in the absence of drug and 0% the Th-S fluorescence of the bacterial cells not expressing the peptide or protein. A minimum of five independent assays (with three replicates for assay) was performed for each tested compound. More assays were performed to obtain a SEM < 5% with a maximum of 10 independent assays.

Where [1] appears, read: [I] 9 μM, 0.0833 U/mL enzyme, 100 μM acetylthiocholine, read-out: % inhibition vs eqBChE ± SD.
[2] abbreviates: read-out: % inhibition vs eqBChE ± SD (9 uM), 9 uM, supplement csv.
Where [3] appears, read: 0.0833 U/mL enzyme, 100 μM acetylthiocholine, read-out: % inhibition vs eqBChE ± SD.

Like-named read-outs stand apart in the source and are kept apart here.

T1 sequence (P81908 whole entry): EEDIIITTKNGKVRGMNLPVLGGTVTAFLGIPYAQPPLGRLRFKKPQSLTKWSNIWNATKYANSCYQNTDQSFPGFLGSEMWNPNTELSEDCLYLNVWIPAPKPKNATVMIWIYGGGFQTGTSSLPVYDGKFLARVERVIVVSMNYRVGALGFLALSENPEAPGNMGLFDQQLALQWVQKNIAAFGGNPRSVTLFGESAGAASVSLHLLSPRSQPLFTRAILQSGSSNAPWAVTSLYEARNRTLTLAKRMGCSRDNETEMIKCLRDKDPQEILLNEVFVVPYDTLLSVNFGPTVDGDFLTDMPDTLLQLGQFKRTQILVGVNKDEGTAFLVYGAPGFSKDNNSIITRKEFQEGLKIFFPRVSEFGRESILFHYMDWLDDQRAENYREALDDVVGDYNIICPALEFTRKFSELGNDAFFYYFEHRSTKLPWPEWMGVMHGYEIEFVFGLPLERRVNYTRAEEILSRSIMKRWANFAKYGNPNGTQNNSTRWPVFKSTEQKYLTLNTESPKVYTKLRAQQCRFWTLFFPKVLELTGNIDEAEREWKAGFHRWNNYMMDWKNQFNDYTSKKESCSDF

`c1ccc(CNCCCCCNc2ncccn2)cc1` [Compound 9, N^1-Benzyl-N^5-(pyrimidin-2-yl)pentane-1,5-diamine]: the inhibition at 9 µM on equine BChE (eqBChE) (setting [1]) and at equine BChE (eqBChE) (setting [2]) was 17.4 ± 2.7% throughout. Besides, 100 µM produced 2.6% inhibition on tau protein.

As for `c1ccc(CNCCCCCCNc2ncccn2)cc1` [Compound 13, N^1-Benzyl-N^6-(pyrimidin-2-yl)hexane-1,6-diamine], the inhibition at 9 µM at equine BChE (eqBChE) (setting [1]) and at equine BChE (eqBChE) (setting [2]) was 26 ± 3.5% each time. In addition, the inhibition (in general, how much of the control response was suppressed) at 100 µM against tau protein stood at 12.6%.

Take `COc1cc(CNCCCCCCNc2ncccn2)ccc1O` [Compound 18, 2-Methoxy-4-(((6-(pyrimidin-2-ylamino)hexyl)amino)methyl)phenol]: the “% inhibition vs eqBChE ± SD (900 uM)” value on equine BChE (eqBChE) (supplement csv) is given as 44.2 ± 6.4%. In addition, the inhibition at 0.9 µM at equine BChE (eqBChE) (setting [3]) was 44%. In addition, the inhibition at 9 µM on equine BChE (eqBChE) (setting [1]) turned out to be 84%; at equine BChE (eqBChE) (setting [2]) it was 84.4 ± 0.8%. 100 µM produced 1% inhibition against tau protein.

`Oc1cccc(CNCCCCCCNc2ncccn2)c1` [Compound 19, 3-(((6-(Pyrimidin-2-ylamino)hexyl)amino)methyl)phenol]: the inhibition at 9 µM on equine BChE (eqBChE) (setting [1]) and at equine BChE (eqBChE) (setting [2]) was 26.6 ± 3.9% in each case. The molecule also returned an inhibition at 100 µM on tau protein of 9.9%.

In the case of `Oc1cccc(CNCCCCCCNc2ncccn2)c1O` [Compound 20, 3-(((6-(Pyrimidin-2-ylamino)hexyl)amino)methyl)benzene-1,2-diol], the inhibition at 9 µM at equine BChE (eqBChE) (setting [1]) and at equine BChE (eqBChE) (setting [2]) was 17.1 ± 1.6% each time. In addition, on tau protein, 100 µM produced 4.6% inhibition.

Take `c1cnc(NCCCCCCNCc2c[nH]c3ccccc23)nc1` [Compound 22, N^1-((1H-Indol-3-yl)methyl)-N^6-(pyrimidin-2-yl)hexane-1,6-diamine]: the “% inhibition vs eqBChE ± SD (900 uM)” value at equine BChE (eqBChE) (supplement csv) is recorded as 65.1 ± 3.8%. Also, the inhibition at 0.9 µM at equine BChE (eqBChE) (setting [3]) amounted to 65%. For the same molecule, the “% inhibition vs eqBChE ± SD” value on equine BChE (eqBChE) ([I] 9 μM, 0.0833 U/mL enzyme, 100 μM acetylthiocholine) stood at 94.0 ± 0.7%. In addition, the results for the inhibition at 9 µM on equine BChE (eqBChE) (setting [1]) and on equine BChE (eqBChE) (setting [2]) were 94% and 94 ± 0.7%, respectively. At tau protein, this molecule returned an inhibition at 100 µM of 6.8%.

Regarding `c1ccc(CNCCCCCNc2ccccn2)cc1` [Compound 23, N^1-Benzyl-N^5-(pyridin-2-yl)pentane-1,5-diamine], on equine BChE (eqBChE) (setting [3]), the inhibition at 0.9 µM amounted to 5 ± 5.8%. The inhibition at 9 µM was 56.5 ± 3% at equine BChE (eqBChE) (setting [1]) and 5 ± 5.8% on equine BChE (eqBChE) (setting [2]). At tau protein, this molecule registered an inhibition at 100 µM of 7%.

Regarding `c1ccc(CNCCCCCCNc2ccccn2)cc1` [Compound 25, N^1-Benzyl-N^6-(pyridin-2-yl)hexane-1,6-diamine], the inhibition at 0.9 µM on equine BChE (eqBChE) (setting [3]) came out at 16.6 ± 6.3%. In addition, the inhibition at 9 µM worked out at 71.6 ± 2.1% at equine BChE (eqBChE) (setting [1]) and 16.6 ± 6.3% at equine BChE (eqBChE) (setting [2]). The same molecule showed an inhibition at 100 µM against tau protein of 6.7%.

As for `Brc1ccc(CNCCCCCCNc2ccccn2)cc1` [Compound 26, N^1-(4-Bromobenzyl)-N^6-(pyridin-2-yl)hexane-1,6-diamine], at equine BChE (eqBChE) (setting [3]), the inhibition at 0.9 µM turned out to be 17 ± 2.7%. For the same molecule, the inhibition at 9 µM at equine BChE (eqBChE) (setting [1]) turned out to be 76.8 ± 0.5%; on equine BChE (eqBChE) (setting [2]) it was 17 ± 2.7%. This molecule displayed an inhibition at 100 µM on tau protein of 7.3%.

Turning to `COc1ccccc1CNCCCCCCNc1ccccn1` [Compound 28, N^1-(2-Methoxybenzyl)-N^6-(pyridin-2-yl)hexane-1,6-diamine], the inhibition at 0.9 µM on equine BChE (eqBChE) (setting [3]) amounted to 24.2 ± 3.3%. Also, the inhibition at 9 µM was found to be 74.3 ± 1.4% on equine BChE (eqBChE) (setting [1]) and 24.2 ± 3.3% on equine BChE (eqBChE) (setting [2]). Moreover, the inhibition at 100 µM at tau protein was found to be 17%.

As for `COc1cc(CNCCCCCCNc2ccccn2)ccc1O` [Compound 30, 2-Methoxy-4-(((6-(pyridin-2-ylamino)hexyl)amino)methyl)phenol], at equine BChE (eqBChE) (supplement csv), the “% inhibition vs eqBChE ± SD (900 uM)” value is reported as 15.6 ± 6.1%. The inhibition at 0.09 µM on equine BChE (eqBChE) ([I] 90 nM, 0.0833 U/mL enzyme, 100 μM acetylthiocholine, read-out: % inhibition vs eqBChE ± SD) stood at 15.6 ± 6.1%. Also, the inhibition at 0.9 µM on equine BChE (eqBChE) (setting [3]) worked out at 51%. The inhibition at 9 µM at equine BChE (eqBChE) (setting [1]) is 91%; on equine BChE (eqBChE) (setting [2]), 51.2 ± 3.1%. At tau protein, 100 µM produced 12.8% inhibition.

The values above are taken from PMC8569681, “New Pyrimidine and Pyridine Derivatives as Multitarget Cholinesterase Inhibitors: Design, Synthesis, and In Vitro and In Cellulo Evaluation” (ACS Chemical Neuroscience, 2021).
